# Assay results taken from patent US9682111B2, “Method for preventing or treating neurodegenerative diseases” (priority 2012, dated 2017).
# How the values were obtained:
# [1] = system: pPD95.86::α-SYN transgenic C. elegans; test: Lifespan of α-SYN transgenic C. elegans (anti-elegan aging experiment); assay type: in vivo, Caenorhabditis elegans; details: α-syn transgenic elegans on NGM plates with OP50, 20° C.; α-syn model 11.8 ± 3.66, N2 16 ± 5.68
# Description: pPD95.86::α-SYN transgenic C. elegans were establish by Sun et al. and preserved in the Department of Neurosurgery, the First Affiliated Hospital of Sun Yat-sen University, China. The method for establishing the α-SYN transgenic C. elegans was described in detail by Sun et al. (Toxic effect of Parkinson's disease gene α-Synuclein on Caenorhabditis elegants. New Medicine, 2013, 44 (4): 273-277.)
# In brief, a wild-human α-SYN cDNA were amplified by PCR and inserted into the plasmid pPD95.86. Transgenic plasmids were isolated and injected into the gonad of synchronized N2 C. elegants at a concentration of 100 ng/μl. The transgenic F2 (second generation) worms was selected and then mutated under UV radiation. The UV treated F2 worms were backcrossed to wild type worms to generate stable α-SYN transgenic lines. The α-SYN transgenic lines express α-SYN and therefore have shorter life span and impaired motor functions.
# A solution containing E. coli OP50, and biotae extracts and diterpenoid compounds of different concentrations are coated onto NGM plates. N2 elegans are synchronized to L4 phase under 20° C. Three plates are employed in one experimental group, and each plate includes about 25 elegans. The number of live elegans is recorded every day, and the elegans are transferred into a new NGM plate when the food is used up or there is mold contamination. The experiment pends till all the elegans are dead.
# [2] = system: Caenorhaditiselegans transgene strain CL4176 (expressing Aβ protein); test: Paralysis of AD model elegans caused by Aβ (transgene strain CL4176); assay type: in vivo, Caenorhabditis elegans; details: 15° C. then 26° C., paralysis counted every three hours, blank control 49.503 ± 0.445
# Protocol: Caenorhaditiselegans (Caenorhaditiselegans) transgene strain CL4176 (expressing Aβ protein under temperature inducing) were synchronized and cultured under 15° C. to L1 phase, and then added into coated OP50 microbial medium dishes containing the extracted drugs with different concentrations, at around 25/dish. Three dishes were used in one group. The dishes were cultured under 15° C. for 12 hours and then cultured under 26° C. 36 hours after the change of culturing temperature, the paralyses of the elegans were observed. Count every three hours until all the elegans was paralyzed.
# [3] = system: PC12 cells; test: MPP+ induced injury of PC12 cells (PD model cells), MTT assay; assay type: cell-based, rat; set-up: Relative Cell Activity %: concentration or dose not given beside the values; details: PC12 cells with MPP+ and test substance, 24 hours; for average OD value: MTT assay, model group 1.061 ± 0.035, normal control 2.198 ± 0.046; for Relative Cell Activity %: MTT, normal control 100, model group 48.3
# Protocol: PC12 cells (rat adrenal pheochromocytoma cell strain), which show many similar characters with dopaminergic neurons, was cultured in DMEM medium (which contains 5% horse serum, 5% fetal bovine serum, 100 U/mL penicillin, 100 µg/mL streptomycin), in an incubator under 37° C., saturated humidity, and 5% CO2. The medium was replaced every 2-3 days, and the cells were subcultured when the cells cover 70-80% area of the plate. Cells in log phase and under fine growth conditions were chosen, and inoculated in 96 well plate at 1-5×10^5 and 100 μl per well. After culturing under 37° C. for 24 hours and the cells adhere to the walls of the wells, MPP^+ medium was added to the model group, a medium containing MPP^+(1-methyl-4-phenylpyridinium) and semen biotae extracts/diterpenoid compounds were added to experimental group, and a medium with no drug was added to the blank control group. Then the media were continued to culture in the incubator for 24 hours. MTT assay was used to evaluate cell activity.
Molecule,Living time [1],Average Living Time [2],average OD value [3],Relative Cell Activity % [3]
C=C1CCC2C(C)(C(=O)O)CCCC2(C)C1CCC1=CC(O)OC1=O (stereo not shown) [15-Hydroxypinusolidic acid],14.1 ± 4.68 days,51.575 ± 0.257 h,1.585 ± 0.057,72.1%
C=C1CC[C@@H]2[C@](C)(CCC[C@]2(C)C(=O)OC)[C@H]1CCC1=CCOC1=O [Pinusolide],15.6 ± 2.74 days,54.003 ± 0.287 h,,
"C=C1CC[C@@H]2[C@](C)(CCC[C@]2(C)C(=O)O)[C@H]1CCC(C)=O [1-Naphthalenecarboxylic acid, decahydro-1,4a-dimethyl-6-methylene-5-(3-oxobutyl)-, (1S,4aR,5S,8aR)-]",14.35 ± 3.9 days,50.991 ± 0.568 h,1.391 ± 0.038,63.3%
"C=CC(C)(O)C(O)CC1C(=C)CCC2C(C)(C(=O)O)CCCC12C (stereo not shown) [12,13-Dihydroxylabda-8(17),14-dien-19-oic acid]",14.15 ± 3.1 days,51.008 ± 0.434 h,,
"C=C1CCC2C(C)(C(=O)O)CCCC2(C)C1CC1(O)OCC(O)C1(C)O (stereo not shown) [12,13,14-trihydroxylabda-12,15-epoxy-8(17)-en-19-oic acid]",14 ± 3.67 days,,1.404 ± 0.057,63.9%
"C=C[C@@](C)(O)CCC1C(=C)C(O)CC2C(C)(C(=O)O)CCCC12C (stereo partly drawn) [7β,13S-dihydroxylabda-8(17),14-dien-19-oic acid]",13.7 ± 2.85 days,,1.359 ± 0.045,61.8%
"C=C1CCC2C(C)(C(=O)O)CCCC2(C)C1CCCC(=O)O (stereo not shown) [14,15-bisnor-8(17)-labdene-16,19-dioic acid]",14.35 ± 3.38 days,51.892 ± 0.322 h,1.292 ± 0.072,58.8%
C=C1CC[C@@H]2[C@](C)(CCC[C@]2(C)C(=O)O)[C@H]1CC[C@H](C)CCO [Imbricatolic acid],14.25 ± 2.67 days,55.857 ± 0.428 h,,
"C=CC1(C)C=C2CCC3C(C)(CO)C(O)CCC3(C)C2CC1 (stereo not drawn) [Sandaracopimaradiene-3β,18-diol]",14.05 ± 3.49 days,,1.652 ± 0.015,75.1%
"C=C1CC[C@@H]2[C@](C)(CCC[C@]2(C)C(=O)O)[C@H]1/C=C/C(C)=O [1-Naphthalenecarboxylic acid, decahydro-1,4a-dimethyl-6-methylene-5-[(1E)-3-oxo-1-butenyl]-, (1S,4aS,5S,8aR)-]",14.75 ± 2.22 days,,,
C=C[C@@](C)(O)CC[C@H]1C(=C)CC[C@@H]2[C@]1(C)CCC[C@]2(C)C(=O)O [13-Epicupressic acid],13.7 ± 3.34 days,54.015 ± 0.432 h,,
"C=C1CCC2C(C)(C(=O)OC)CCCC2(C)C1C/C=C/C (stereo not shown) [14,15-Bisnor-8(17),12E-labdadien-19-oic acid methyl ester]",14.8 ± 3.24 days,,1.536 ± 0.035,69.9%
"C=CC1(C)C=C2C=CC3C(C)(C(=O)O)CCCC3(C)C2CC1 (stereo not shown) [6,7-Dehydrosandarapimaric Acid]",14.7 ± 2.7 days,52.435 ± 0.484 h,1.435 ± 0.044,65.3%
"C=C1CCC2C(C)(C(=O)O)CCCC2(C)C1C/C=C(\C)[C@@H](O)CO (stereo partly drawn) [14(R),15-Dihydroxy-8(17),12(E)-labdadien-19-oic acid]",14.5 ± 3.76 days,,1.346 ± 0.059,61.2%
Platyclolactonic Acid Methyl Ester,14.3 ± 3.08 days,51.393 ± 0.487 h,,
C=CC1(C)C=C2C(O)CC3C(C)(C(=O)O)CCCC3(C)C2CC1 (stereo not drawn) [7α-Hydroxysandaracopimaric acid],14.3 ± 3.01 days,53.067 ± 0.455 h,,
C=C[C@]1(C)C=C2CC[C@@H]3[C@](C)(CCC[C@@]3(C)C(=O)O)[C@H]2CC1 [Sandaracopimaric acid],15.85 ± 3.1 days,53.616 ± 0.443 h,,
Isopinusolide,13.9 ± 3.65 days,53.988 ± 0.320 h,,
C=C1CC[C@@H]2[C@](C)(CCC[C@]2(C)C(=O)O)[C@H]1CC/C(C)=C/CO [Isocupressic acid],14.85 ± 2.66 days,53.879 ± 0.414 h,,
C=C1CCC2C(C)(C(=O)O)CCCC2(C)C1CCC1=CC(OC)OC1=O (stereo not shown) [15-Methoxypinusolidic acid],13.55 ± 4.05 days,55.012 ± 0.399 h,,
C=C1CC[C@@H]2[C@](C)(CCC[C@]2(C)C(=O)O)[C@H]1CCC1=CCOC1=O [Pinusolidic acid],13.8 ± 3.37 days,,1.224 ± 0.057,55.7%
Platyclolactonic Acid,13.95 ± 2.26 days,,,
CC(C)c1c(O)ccc2c1CCC1C2(C)C(=O)CC(O)C1(C)C (stereo not drawn) [1-oxo-3β-hydroxytotarol],14.6 ± 3.63 days,53.478 ± 0.357 h,1.448 ± 0.057,65.9%
"C=C1CCC2C(C)(C(=O)O)CCCC2(C)C1CC/C(=C\CO)CO (stereo not shown) [15,16-Dihydroxy-8(17),13(E)-labdadien-19-oic acid]",14.35 ± 2.62 days,51.217 ± 0.397 h,,
"C=C1CCC2C(C)(C(=O)O)CCCC2(C)C1CC1OCC=C1CC (stereo not shown) [16-Methyl-12,15-epoxy-8(17),13-labdadien-19-oic acid]",13.95 ± 3.9 days,54.336 ± 0.377 h,,
"C=C1CC[C@@H]2[C@](C)(CCC[C@]2(C)C(=O)O)[C@H]1C/C=C(\C)C=O [Naphthalenecarboxylic acid, decahydro-1,4a-dimethyl-6-methylene-5-[(2E)-3-methyl-4-oxo-2-butenyl]-, (1S,4aR,5S,8aR)-]",14.4 ± 3.42 days,52.136 ± 0.415 h,1.236 ± 0.085,56.2%
C=C[C@@]1(C)CC[C@H]2C(=CC[C@@H]3[C@]2(C)CCC[C@@]3(C)C(=O)O)C1 [Isopimaric acid],14.9 ± 1.55 days,52.785 ± 0.432 h,,
